Test [1] deals with 4T1-luc mouse mammary tumor. The test can be described thus: In vivo antitumor efficacy and biosafety study, 4T1-luc tumor-bearing mice. To be noted: 8 mg/kg, peritumoral injection every other day, 19 days.
In test [2] the test system is breast cancer cells. The experiment in a line: Wound healing assay. The class given is cell-based. To be noted: 36 h, compared with the control group.
The target of test [3] is T1, recombinant protein His-SND1 (16-339) (UniProt Q7KZF4 16-339).
T1 sequence (looked up): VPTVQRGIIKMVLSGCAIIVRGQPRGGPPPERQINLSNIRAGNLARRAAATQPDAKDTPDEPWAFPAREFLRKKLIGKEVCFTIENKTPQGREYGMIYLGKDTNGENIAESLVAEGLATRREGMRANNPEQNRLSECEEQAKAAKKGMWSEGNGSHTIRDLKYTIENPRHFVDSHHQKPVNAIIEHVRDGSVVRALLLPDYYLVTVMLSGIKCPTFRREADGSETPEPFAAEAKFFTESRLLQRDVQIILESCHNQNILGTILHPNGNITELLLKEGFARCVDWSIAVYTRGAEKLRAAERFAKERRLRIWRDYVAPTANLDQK
The experiment in a line: fluorescence polarisation. On the technique in general: In fluorescence polarisation assays a small probe gives low polarisation when free and higher when bound to something large.

Ends that are not written are not given here.

On to `C[S+]1CC[C@@H](C(=O)N[C@@H](CCC(=O)O)C(=O)N[C@@H](Cc2c[nH]c3ccccc23)C(=O)O)NC(=O)[C@H](CCCNC(=N)N)NC(=O)[C@H](Cc2c[nH]cn2)NC(=O)[C@H](CCC(=O)O)NC(=O)[C@@H](NC(=O)[C@H](CCCNC(=N)N)NC(=O)[C@H](CCCNC(=N)N)NC(=O)OCC2c3ccccc3-c3ccccc32)CC[S+](C)Cc2cccc(c2)C1` (stereo partly drawn) [Wpc], for which, in test [1], the “tumor growth suppression (in words)” value is reported as “failed to suppress the tumor growth”. Further, the tumor migration suppression result in test [2] is recorded as “little effect”.

A word on the Kd: it is the equilibrium constant for the complex coming apart. DWNEPAEEWGNWVDE (peptide, UniProt Q86UE4 393-407, looked up, also: FITC label (position not given here)) [MS2D-E]: the Kd in test [3] is roughly 34 nM.

Source of the values: article PMC10806767 (JACS Au, 2023).
